Results as given in PMC10732398 (PLOS Pathogens, 2023).

Tested on: ⍺4β7 on primary CD8^+ T cells
Test: Flow cytometry: FAM-conjugated pCD4^165-178 binding to RA-treated primary CD8^+ T cells
Design: species or system human
Details: FAM-Ttds-labelled peptide 1.25 μg/200,000 cells in 100 μl; presence or absence of Mn^++
Description: To further investigate the interaction between pCD4^165-178 and ⍺4β7 we attached a fluorescein dye to its amino terminus via a trioxatridecan-succinamic acid (Ttds) linker (Fig 5A). A scrambled pCD4^165-178 was employed as a control. […] FIB504 and vedolizumab inhibited binding by ~50%. This inhibition pattern resembles the one we obtained when inhibiting D1D2-Ig⍺tp with the same antagonists (Fig 3). We conclude that the CD4 D2 G β-strand binds directly to the headpiece region of ⍺4β7 in a cation dependent manner. Support for this conclusion, in the form of site directed mutagenesis within the D2 G β-strand is provided below.
Fig 5 Direct binding of pCD4^165-178 to ⍺4β7 on primary T cells. (A) Sequence of FAM -conjugated pCD4^165-178 and a scrambled derivative (FAM-scr pCD4^165-178). (B) Flow-cytometry derived histogram of pCD4^165-178 binding to RA -cultured CD8^+ T cells. pCD4^165-178 in the presence (green), or absence of Mn^++(black). Unstained cells are shown (grey). (C) Binding of pCD4^165-178 and its scrambled derivative to CD8^+ T cells in the presence of MnCl2 as in panel B, and in the presence of ⍺4 and ⍺4β7 antagonists, as indicated. Y-axis indicates % cells bound. Error bars represent standard error from 3 independent experiments.
Cells were stained with fluoresceine conjugated mAbs or recombinant proteins using standard procedures preceded by Fc receptor blocking with human IgG. Buffers used were 10 mM HEPES 150 mM NaCl (HBS Buffer) with 100 μM CaCl2. 1 mM MnCl2 was also included, unless otherwise specified. Buffer without divalent cations included 0.1 mM EDTA. Unlabeled mAb or protein inhibitors were preincubated with cells or proteins at a 5X molar excess for 15 min on ice. FAM labeled peptides were used at 1.25 μg/ 200,000 cells in a 100 μl volume. Data were acquired using a FACSCanto II (BD Biosciences) and analyzed with FlowJo software (BD Biosciences). Plotted MFI values represent absolute values.

In the case of “QKKVEFKIDIVVLA [CD4 P42, linear CD4 D2 peptide, residues 165-178, G β-strand]”, the “binding of FAM-labelled peptide to RA-treated CD8^+ T cells (in words)” value is reported as “reacted strongly in the presence, but not in the absence of Mn^++”.
